Experimental data reported in patent publication US6365195B2, “Fungicidal active compound combinations” (Bayer Aktiengesellschaft, priority 1993, dated 2002).

Key:
Type in all cases: in vivo
[1] = system: Erysiphe graminis f.sp. hordei; assay: Erysiphe test (barley)/protective; details: protective, 50 g/ha, 7 days after inoculation
Experimental: (§1) Solvent: 10 parts by weight N-methyl-pyrrolidon
(§2) Emulsifier: 0.6 parts by weight alkylarylpoly-glycolether
To produce a suitable preparation of active compound, 1 part by weight of active compound is mixed with the stated amounts of solvent and emulsifier, and the concentrate is diluted with water to the desired concentration.
To test for protective activity, young plants are sprayed with the preparation of active compound until dew-moist. After the spray coating has dried on, the plants are dusted with spores of Erysiphe graminis f.sp. hordei.
The plants are placed in a greenhouse at a temperature of about 20° C. and a relative atmospheric humidty of about 80%, in order to promote the development of powdery mildew pustules.
(§3) Evaluation is carried out 7 days after the inoculation.

[2] = system: Erysiphe graminis f.sp.hordei; assay: Erysiphe-test (wheat)/curative; details: curative, 200 g/ha, 7 days after inoculation
Experimental: Solvent: 10 parts by weight of N-methyl-pyrrolidone Emulsifier: 0.6 parts by weight of alkylaryl-polglycolether To produce a suitable preparation of active compound, 1-part by weight of active compound is mixed with the stated amounts of solvent and emulsifier, and the concentrate is diluted with water to the desired concentration. To test for curative activity, young plants are dusted with spores of Erysiphe graminis f.sp.hordei. 48 hours after the inoculation, the plants are sprayed with the preparation of active compound until dew-moist. The plants are placed in a greenhouse at a temperature of about 20° C. and a relative atmospheric humidity of about 80%, in order to promote the development of powdery mildew pustules. Evaluation is carried out 7 days after the inoculation.

Botrytis cinerea = assay: Botrytis test (bean)/protective; details: protective, 3 days after inoculation
Experimental: After the spray coating has dried on, 2 small pieces-of agar covered with Botrytis cinerea are placed on each leaf. The inoculated plants are placed in a darkened humid chamber at 20° C.
3 days after the inoculation, the size of the infected spots on the leaves is evaluated.

Leptosphaeria nodorum [3] = assay: Leptosphaeria nodorum test (wheat)/curative; details: curative, 400 g/ha, 10 days after inoculation
Experimental: Solvent: 10 parts by weight of dimethyl-formamide
Emulsifier: 0.6 parts by weight of alkylaryl polyglycol ether
To produce a suitable preparation of active compound, 1-parts by weight of active compound is mixed with the stated amounts of solvent and emulsifier, and the concentrate is diluted with water to the desired concentration.
(§4) To test for curative activity, young plants are sprayed with the preparation of active compound until dew-moist. After the spray coating has dried on, the plants are sprayed with a spore suspension of Leptosphaeria nodorum. The plants remain for 48 hours in an incubation cabin at 20° C. and 100% relative atmospheric humidity.
(§5) The plants are placed in a greenhouse at a temperature of 15° C. and a relative atmospheric humidity of about 80%.
(§6) Evaluation is effected 10 days after the inoculation.

Pyrenophora teres = Pyrenophora teres test (barley)/protective; details: protective, 25 g/ha, 7 days after inoculation
Experimental: as §1, §2
(§7) To produce a suitable preparation of active compound, 1-part by weight of active compound is mixed with the stated amounts of solvent and emulsifier, and the concentrate is diluted with water to the desired concentration.
To test for protective activity, young plants are sprayed with the preparation of active compound until dew moist. After the spray coating has dried off, the plants are sprayed with a conidia suspension of Pyrenophora teres. The plants then remain in an incubation cabin at 20° C. and 100% relative atmospheric humidity for 48 hours.
The plants are placed in a greenhouse at a temperature of about 20° C. and a relative atmospheric humidity of about […].
Evaluation is carried out 7 days after inoculation.

Leptosphaeria nodorum [4] = assay: Leptosphaeria nodorum test (wheat)/protective; details: protective, 10 days after inoculation
Experimental: Solvent: 100 parts by weight of dimethylformamide
Emulsifier: 0.25 parts by weight of alkylaryl polyglycol ether
as §7
as §4, with “protective” for “curative”
as §5, §6

[5] = system: Erysiphe graminis f. sp. hordei; assay: Erysiphe test (wheat) protective; details: 7 days after inoculation
Experimental: Solvent: 10 parts by weight N-methyl-pyrrolidone
as §2, §7
To test for protective activity, young plants are dusted with spores of Erysiphe graminis f. sp. hordei. […]
The plants are placed in a greenhouse at a temperature of about 20° C. and a relative atmospheric humidity of about 80%, in order to promote the development of powdery mildew pustules.
as §3

## CC1(C(=O)Nc2ccc(O)c(Cl)c2Cl)CCCCC1 [(I)]
[1]
  Degree of effectiveness in % of the untreated control: 0%
[2]
  Degree of effectiveness in % of the untreated control: 30%
Botrytis cinerea; 5 ppm
  Degree of effectiveness in % of the untreated control: 51%
Leptosphaeria nodorum [3]
  Degree of activity in % of the untreated control: 25%
Pyrenophora teres
  Degree of effectiveness in % of the untreated control: 33%
Leptosphaeria nodorum [4]; concentration not given
  Degree of effectiveness in % of the untreated control: 0%
[5]; 25 g/ha
  Degree of effectiveness in % of the untreated control: 30%
[5]; 200 g/ha
  Degree of effectiveness in % of the untreated control: 85%

## CO/C=C(\C(=O)OC)c1ccccc1Oc1cc(Oc2ccccc2C#N)ncn1 [(ηa)]
[1]
  Degree of effectiveness in % of the untreated control: 15%
[5]; 200 g/ha
  Degree of effectiveness in % of the untreated control: 79%

## CO/C=C(\C(=O)OC)c1ccccc1Oc1cc(Oc2ccccc2C#N)ncn1 [(ηb)]
[2]
  Degree of effectiveness in % of the untreated control: 75%

## CO/N=C(\C(=O)OC)c1ccccc1COc1ccccc1C [(ηb)]
[1]
  Degree of effectiveness in % of the untreated control: 85%
Leptosphaeria nodorum [3]
  Degree of activity in % of the untreated control: 49%
Pyrenophora teres
  Degree of effectiveness in % of the untreated control: 33%
[5]; 25 g/ha
  Degree of effectiveness in % of the untreated control: 85%

## COC(=O)Nc1nc2ccccc2[nH]1 [Carbendazim, methyl benzimidazole-2-carbamate]
Botrytis cinerea; 5 ppm
  Degree of effectiveness in % of the untreated control: 52%

## N#Cc1c(Cl)c(Cl)c(Cl)c(C#N)c1Cl [Chlorothalonil, tetrachloro-isophthalo-dinitrile]
Botrytis cinerea; 200 ppm
  Degree of effectiveness in % of the untreated control: 37%

## CN(C)S(=O)(=O)N(SC(F)(Cl)Cl)c1ccccc1 [Dichlofluanid, dichlofluanid]
Botrytis cinerea; 100 ppm
  Degree of effectiveness in % of the untreated control: 32%

## O=[N+]([O-])c1cc(C(F)(F)F)c(Cl)c([N+](=O)[O-])c1Nc1ncc(C(F)(F)F)cc1Cl [Fluazinam, fluazinam]
Botrytis cinerea; 5 ppm
  Degree of effectiveness in % of the untreated control: 20%

## O=C1c2ccccc2C(=O)N1SC(Cl)(Cl)Cl [Phaltan, phaltan]
Botrytis cinerea; 50 ppm
  Degree of effectiveness in % of the untreated control: 0%

## CC12CC1(C)C(=O)N(c1cc(Cl)cc(Cl)c1)C2=O (stereo not drawn) [Procymidone, procymidone]
Botrytis cinerea; 50 ppm
  Degree of effectiveness in % of the untreated control: 44%

## Cc1cc(C)nc(Nc2ccccc2)n1 [Pyrimethanil, pyrimethanil]
Botrytis cinerea; 10 ppm
  Degree of effectiveness in % of the untreated control: 0%

## CC(C)(C)C(O)(CCc1ccc(Cl)cc1)Cn1cncn1 (stereo not drawn) [Tebuconazole]
Leptosphaeria nodorum [4]; spray liquor 25 ppm
  Degree of effectiveness in % of the untreated control: 75%

## Cc1ccc(N(SC(F)(Cl)Cl)S(=O)(=O)N(C)C)cc1 [Tolylfluanid, tolylfluanid]
Botrytis cinerea; 50 ppm
  Degree of effectiveness in % of the untreated control: 32%
